The numbers were not newly measured in US20170296666A1, “Stable Pharmaceutical Composition Of Amorphous Ticagrelor” (Amneal Pharmaceuticals Company GmbH, priority 2016, published 2017), which cites them from elsewhere.

The conditions of this series: class IV = low solubility and low permeability.

As for `CCCSc1nc(N[C@@H]2C[C@H]2c2ccc(F)c(F)c2)c2nnn([C@@H]3C[C@H](OCCO)[C@@H](O)[C@H]3O)c2n1` [Ticagrelor, (1S,2S,3R,5S)-3-[7-{[(1/R,2S)-2-(3,4-difluorophenyl)cyclopropyl]amino}-5 (propylthio)-3H-[1,2,3]-triazolo[4,5-d]pyrimidin-3-yl]-5-(2-hydroxyethoxy) cyclopentane-1,2-diol], the “Biopharmaceutics Classification System (BCS) class” value is “class IV”.
